According to patent US12630527B2, “Broad spectrum anti-cancer compounds” (The Regents of the University of California, priority 2019, dated 2026):

Experiments:
[1] = system: LUDLU-1; experiment: High Throughput Screen for growth inhibition, LUDLU-1; assay type: cell-based; conditions: LUDLU-1, LUSC; 3 days; unit not given
Method: (§1) The High Throughput Screen method is described below. The endpoint readout of this assay is based upon quantitation of ATP as an indicator of viable cells.
(§2) Cell lines that have been preserved in liquid nitrogen are thawed and expanded in growth media (see Table 1-3). Once cells have reached expected doubling times, screening begins. Cells are seeded in growth media in black 384-well tissue culture treated plates at 500-1500 cells per well (as noted in Analyzer). Cells are equilibrated in assay plates via centrifugation and placed at 37° C. 5% CO2 for twenty-four hours before treatment. […] Assay plates are incubated with compound for 3 days and are then analysed using CellTiter-Glo 2.0. All data points are collected via automated processes and are subject to quality control and analysed using Horizon's software.
(§3) Growth Inhibition (GI) is utilized as a measure of cell growth. The GI percentages are calculated by applying the following test and equation: If T<V_0: 100*(1−(T−V_0)/V_0) If T≥V_0: 100*(1−(T−V_0)/(V−V_0)) where T is the signal measure for a test article, V is the untreated/vehicle-treated control measure, and Vo is the untreated/vehicle control measure at time zero (also colloquially referred as T0 plates). This formula is derived from the Growth Inhibition calculation used in the National Cancer Institute's NCI-60 high throughput screen. For the purposes of this report, all data analysis was performed in Growth Inhibition (except where noted).
(§4) A GI of 100% represents complete growth inhibition (cytostasis) and in this case cells treated with compound for 3 days would have the same endpoint reading as TO control cells. A GI of 200% represents complete death (cytotoxicity) of all cells in the culture well and in this case the T reading at 3 days will be lower than the TO control (values near or at zero).
(§5) Horizon also provides Inhibition as a measure of cell viability. Inhibition levels of 0% represent no inhibition of cell growth by treatment. […] Inhibition percentage is calculated as the following: I=1−T/U where T is the treated and U is the untreated/vehicle control.

[2] = system: Kasumi-1; experiment: High Throughput Screen for growth inhibition, Kasumi-1; assay type: cell-based; conditions: Kasumi-1, Leukemia; 3 days; unit not given
Method: as §1, §2
(§6) Growth Inhibition (GI) is utilized as a measure of cell growth. The GI percentages are calculated by applying the following test and equation: If T<V_0: 100*(1−(T−V_0)/V_0) If T≥V_0: 100*(1−(T−V_0)/(V−V_0)) where T is the signal measure for a test article, V is the untreated/vehicle-treated control measure, and Vo is the untreated/vehicle control measure at time zero (also colloquially referred as T0 plates). This formula is derived from the Growth Inhibition calculation used in the National Cancer Institute's NCI-60 high throughput screen. […]

[3] = system: MOLT-4; experiment: High Throughput Screen for growth inhibition, MOLT-4; assay type: cell-based; conditions: MOLT-4, Leukemia; 3 days; unit not given
Method: as §1, §2, §3, §4
(§7) Horizon also provides Inhibition as a measure of cell viability. Inhibition levels of 0% represent no inhibition of cell growth by treatment. Inhibition of 100% represents no doubling of cell numbers during the treatment window. Both cytostatic and cytotoxic treatments can yield an Inhibition percentage of 100%. Inhibition percentage is calculated as the following: I=1−T/U where T is the treated and U is the untreated/vehicle control.

[4] = system: HEC-50B; experiment: High Throughput Screen for growth inhibition, HEC-50B; assay type: cell-based; conditions: Endometrial (uterine), 3 days, unit not given
Method: as §1, §2, §6

[5] = system: SW480; experiment: High Throughput Screen for growth inhibition, SW480; assay type: cell-based; conditions: SW480, Colon; 3 days; unit not given
Method: as §1, §2, §6

[6] = system: MV4-11; experiment: High Throughput Screen for growth inhibition (CellTiter-Glo 2.0), MV4-11; assay type: cell-based; conditions: MV4-11, Leukemia; 3 days with compound; unit not given
Method: as §1, §2, §6

[7] = system: NCI-H520; experiment: High Throughput Screen for growth inhibition, NCI-H520; assay type: cell-based; conditions: NCI-H520, LUSC; 3 days; unit not given
Method: as §1, §2, §6

[8] = system: PECAPJ15; experiment: High Throughput Screen for growth inhibition, PECAPJ15; assay type: cell-based; conditions: PECAPJ15, Head and Neck; 3 days; unit not given
Method: as §1, §2, §6

[9] = system: BICR16; experiment: High Throughput Screen for growth inhibition, BICR16; assay type: cell-based; conditions: BICR16, Head and Neck; 3 days; unit not given
Method: as §1, §2, §3, §4, §5

[10] = system: AGS; experiment: High Throughput Screen for growth inhibition, AGS; assay type: cell-based; conditions: Gastric, 3 days, unit not given
Method: as §1, §2, §3, §4, §7

[11] = system: Panc 04 03; experiment: High Throughput Screen for growth inhibition, Panc 04 03; assay type: cell-based; conditions: Panc 04 03, Pancreatic; 3 days; unit not given
Method: as §1, §2, §6

[12] = system: MC-F7; experiment: High Throughput Screen for growth inhibition, MC-F7 (MCF7); assay type: cell-based; conditions: MC-F7, Breast (luminal); 3 days; unit not given
Method: as §1, §2, §6

[13] = system: Ishikawa; experiment: High Throughput Screen for growth inhibition, Ishikawa; assay type: cell-based; conditions: Endometrial (uterine), 3 days, unit not given
Method: as §1, §2, §6

[14] = system: SKOV-3; experiment: High Throughput Screen for growth inhibition, SKOV-3; assay type: cell-based; conditions: SKOV-3, Ovarian; 3 days; unit not given
Method: as §1, §2, §6

[15] = system: HCT-116; experiment: High Throughput Screen for growth inhibition, HCT-116; assay type: cell-based; conditions: HCT-116, Colon; 3 days; unit not given
Method: as §1, §2, §6

[16] = system: SUM159PT; experiment: High Throughput Screen for growth inhibition, SUM159PT; assay type: cell-based; conditions: Breast, 3 days, unit not given
Method: as §1, §2, §6

[17] = system: A549; experiment: High Throughput Screen for growth inhibition, A549; assay type: cell-based; conditions: A549, lung adenocarcinoma; 3 days; unit not given
Method: as §1, §2, §6

[18] = system: Pancreatic; conditions: read-out: EC50 of chemo SOC; cited from earlier work

For `CN(Cc1ccc(C(F)(F)F)cc1)c1ccc(CNC2CC2)cn1` [TR-YTH-10], the “Growth Inhibition (GI) Values” [1] was 20.311, the “Growth Inhibition (GI) Values” [2] was 10.784 and the “Growth Inhibition (GI) Values” [3] was 14.304. The “Growth Inhibition (GI) Values” [4] was 37.217, the “Growth Inhibition (GI) Values” [5] was 25.275 and the “Growth Inhibition (GI) Values” [6] was 23.158. For the same molecule, the “Growth Inhibition (GI) Values” [7] was 24.266, the “Growth Inhibition (GI) Values” [8] was 44.646 and the “Growth Inhibition (GI) Values” [9] was 12.966. For the same molecule, the “Growth Inhibition (GI) Values” [10] was 21.842, the “Growth Inhibition (GI) Values” [11] was 28.024 and the “Growth Inhibition (GI) Values” [12] was 24.642. For the same molecule, the “Growth Inhibition (GI) Values” [13] was 22.531, the “Growth Inhibition (GI) Values” [14] was 25.341 and the “Growth Inhibition (GI) Values” [15] was 21.453. For the same molecule, the “Growth Inhibition (GI) Values” [16] was 56.597 and the “Growth Inhibition (GI) Values” [17] was 24.437.
For `Nc1ccn([C@@H]2O[C@H](CO)[C@@H](O)C2(F)F)c(=O)n1` [gemcitabine], the EC50 [18] is given as less than 1000 nM.
